# Key:
# morningglory = assay: Test A preemergence; format: in vivo, Ipomoea spp.
# Procedure, shortened: (§1)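 Pre- and postemergence greenhouse screen. Soil: loam + sand. Spray carrier: solvent mixture, non-phytotoxic, with surfactant. Post timing at 1–2 leaves, height 2–10 cm. Readout: visual injury on a 0–100 scale roughly 10 days after application, untreated plants as reference.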
# corn [1] = assay: Test A preemergence; format: in vivo, Zea mays
# Procedure, shortened: as §1
# barnyardgrass [2] = assay: Test A postemergence; format: in vivo, Echinochloa crus-galli
# Procedure, shortened: as §1
# sedge, umbrella = assay: Test B flooded paddy test; format: in vivo, Cyperus difformis; details: Flood, 250 g ai/ha; 0 to 100 scale where 0 is no effect and 100 is complete control
# Procedure, shortened: (§2)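 Seedlings are raised to two leaves, flooded to a depth of 3 cm and dosed by adding the compound to the floodwater. Water level is kept constant, and plants are scored visually versus controls 13–15 days later (0 = no effect, 100 = complete control).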
# barnyardgrass [3] = assay: Test B flooded paddy test; format: in vivo, Echinochloa crus-galli; details: Flood, 250 g ai/ha; 0 to 100 scale where 0 is no effect and 100 is complete control
# Procedure, shortened: as §2
# corn [4] = assay: Test C preemergence; format: in vivo, Zea mays; details: for Corn plant response rating: preemergence, scale 0 (no effect) to 100 (complete control)
# Procedure, shortened: (§3)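 Seeds are planted in blended loam soil and sand and treated preemergence, while seedlings in a peat moss/vermiculite medium receive postemergence sprays at 2 to 18 cm height. All plants stay in the greenhouse for 13 to 15 days before visual comparison with controls on a 0–100 scale.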
# giant foxtail = assay: Test C preemergence; format: in vivo, Setaria faberii; details: for Foxtail, Giant plant response rating: preemergence, scale 0 (no effect) to 100 (complete control)
# Procedure, shortened: as §3
# Italian ryegrass = assay: Test C postemergence; format: in vivo, Lolium multiflorum; details: for Plant response rating (0 to 100), Ryegrass, Italian: postemergence; for Plant response rating, Ryegrass, Italian: Postemergence, scale 0 to 100 (0 no effect, 100 complete control)
# Procedure, shortened: as §3
# johnsongrass = assay: Test C postemergence; format: in vivo, Sorghum halepense; details: for Plant response rating (0 to 100), Johnsongrass: postemergence; for Plant response rating, Johnsongrass: Postemergence, scale 0 to 100 (0 no effect, 100 complete control)
# Procedure, shortened: as §3
# yellow nutsedge = assay: Test C postemergence; format: in vivo, Cyperus esculentus; details: for Plant response rating (0 to 100), Nutsedge, Yellow: postemergence; for Plant response rating, Nutsedge, Yellow: Postemergence, scale 0 to 100 (0 no effect, 100 complete control)
# Procedure, shortened: as §3
# pigweed = assay: Test C postemergence; format: in vivo, Amaranthus retroflexus; details: for Plant response rating (0 to 100), Pigweed: postemergence; for Plant response rating, Pigweed: Postemergence, scale 0 to 100 (0 no effect, 100 complete control)
# Procedure, shortened: as §3
# wild oat = assay: Test C postemergence; format: in vivo, Avena fatua; details: for Plant response rating (0 to 100), Oat, Wild: postemergence; for Plant response rating, Oat, Wild: Postemergence, scale 0 to 100 (0 no effect, 100 complete control)
# Procedure, shortened: as §3
# velvetleaf = assay: Test C postemergence; format: in vivo, Abutilon theophrasti; details: for Plant response rating (0 to 100), Velvetleaf: postemergence
# Procedure, shortened: as §3
# [5] = 125 g ai/ha, 0 to 100 scale where 0 is no effect and 100 is complete control
# [6] = 500 g ai/ha, 0 to 100 scale, 0 no effect, 100 complete control, approx. 10 days
# [7] = Preemergence, 31 g ai/ha, scale 0 to 100, 0 no effect, 100 complete control
smiles,measurement,setting,value
FC(F)(F)c1cnn(-c2ccccc2Oc2ncc(Cl)cn2)c1 [Compound 16],Morningglory plant response rating,morningglory; [5],30
same,Morningglory plant response rating,morningglory; [6],90
same,Corn plant response rating,corn [1]; [5],10
same,Corn plant response rating,corn [1]; [6],30
same,"Plant response rating, Barnyardgrass",barnyardgrass [2]; [5],60
same,"Plant response rating, Barnyardgrass","barnyardgrass [2]; 500 g ai/ha, 0 to 100 scale, 0 no effect, 100 complete control",100
same,"Plant response rating, Sedge, Umbrella","sedge, umbrella",90
same,"Plant response rating, Barnyardgrass",barnyardgrass [3],40
same,Corn plant response rating,corn [4]; 62 g ai/ha,15
same,Corn plant response rating,corn [4]; 125 g ai/ha,25
same,Corn plant response rating,corn [4]; 250 g ai/ha,35
same,"Plant response rating, Corn",corn [4]; [7],0
same,"Foxtail, Giant plant response rating",giant foxtail; 62 g ai/ha,98
same,"Foxtail, Giant plant response rating",giant foxtail; 125 g ai/ha,100
same,"Foxtail, Giant plant response rating",giant foxtail; 250 g ai/ha,100
same,"Plant response rating, Foxtail, Giant",giant foxtail; [7],95
same,"Plant response rating (0 to 100), Ryegrass, Italian",Italian ryegrass; 125 g ai/ha,20
same,"Plant response rating (0 to 100), Ryegrass, Italian",Italian ryegrass; 250 g ai/ha,20
same,"Plant response rating, Ryegrass, Italian","Italian ryegrass; 31 g ai/ha, 13 to 15 days",10
same,"Plant response rating, Ryegrass, Italian",Italian ryegrass; 62 g ai/ha,15
same,"Plant response rating (0 to 100), Johnsongrass",johnsongrass; 125 g ai/ha,10
same,"Plant response rating (0 to 100), Johnsongrass",johnsongrass; 250 g ai/ha,10
same,"Plant response rating, Johnsongrass","johnsongrass; 31 g ai/ha, 13 to 15 days",0
same,"Plant response rating, Johnsongrass",johnsongrass; 62 g ai/ha,5
same,"Plant response rating (0 to 100), Nutsedge, Yellow",yellow nutsedge; 125 g ai/ha,5
same,"Plant response rating (0 to 100), Nutsedge, Yellow",yellow nutsedge; 250 g ai/ha,20
same,"Plant response rating, Nutsedge, Yellow","yellow nutsedge; 31 g ai/ha, 13 to 15 days",5
same,"Plant response rating, Nutsedge, Yellow",yellow nutsedge; 62 g ai/ha,5
same,"Plant response rating (0 to 100), Pigweed",pigweed; 125 g ai/ha,100
same,"Plant response rating (0 to 100), Pigweed",pigweed; 250 g ai/ha,100
same,"Plant response rating, Pigweed","pigweed; 31 g ai/ha, 13 to 15 days",80
same,"Plant response rating, Pigweed",pigweed; 62 g ai/ha,98
same,"Plant response rating (0 to 100), Oat, Wild",wild oat; 125 g ai/ha,35
same,"Plant response rating (0 to 100), Oat, Wild",wild oat; 250 g ai/ha,45
same,"Plant response rating, Oat, Wild","wild oat; 31 g ai/ha, 13 to 15 days",25
same,"Plant response rating, Oat, Wild",wild oat; 62 g ai/ha,35
same,"Plant response rating (0 to 100), Velvetleaf",velvetleaf; 125 g ai/ha,75
same,"Plant response rating (0 to 100), Velvetleaf",velvetleaf; 250 g ai/ha,75
same,"Plant response rating, Velvetleaf","velvetleaf; Postemergence, 31 g ai/ha, scale 0 to 100 (0 no effect, 100 complete control), 13 to 15 days",60
